How the values were obtained:
[1] = tested on: Odontosyllis undecimdonta worm luciferase; test: Detecting bioluminescence in cold extracts of Odontosyllis undecimdonta worms; assay type: biochemical; details: 1 μg in 100 μl tris-buffered saline pH 7.5, aliquots added to cold worm extracts; FIG. 12, FIG. 13
Protocol: Adding 5 ml of phosphate buffer (5 mM sodium phosphate buffer, pH 7.4) to 200 mg of lyophilized worms. Pipetting the mixture into liquid nitrogen to create small drops of frozen material, then grounding them in a mortar. Adding the frozen powder to 15 ml of phosphate buffer (5 mM sodium phosphate buffer, pH 7.4) and incubating for 40 minutes in an ice bath while stirring regularly. Centrifuging the mixture at 40,000 g (4° C.) for 40 min. Collecting the supernatant comprising luciferase, luciferin and oxyluciferin, freezing the cell-free extract and storing at −70° C. […] Extracts of Odontosyllis undecimdonta worms were used as biological samples. […]

[2] = Effect of light on luciferin; assay type: physicochemical; details: confirmed experimentally
Excerpt: Formation of bioluminescence depends on the amount and preservation of luciferase in biological samples.

[3] = tested on: highly purified luciferase; test: In vitro bioluminescence reaction, conversion of luciferin into oxyluciferin with highly purified luciferase; assay type: biochemical, Odontosyllis undecimdonta; details: 60 μL pure luciferin fraction, 40 μL tris-buffered saline, 20 μL highly purified luciferase; no luminescence in control tube
Protocol: Each tube contained 60 μL of pure luciferin fraction, 40 μL of tris-buffered saline and 20 μL of highly purified luciferase (see section below) or tris-buffered saline in case of negative control. […] The reaction was monitored by using 5 μl aliquots of the reaction and control mixtures, followed by stopping the reaction in 0, 5, 15, 30, 60, 120, 180, and 300 min by adding 20 μl of methanol and centrifugation, after that, the reversed-phase HPLC was used to analyze the supernatants. A Shim-Pack XR-ODS column (3.0×75 mm, 2.2 μm) was used in combination with a Nexera X2 system (Shimadzu, Japan). Solvent A is a 0.1% formic acid solution, pH 4.9, solvent B is acetonitrile. Elution was carried out in a linear gradient with the solvent B concentration from 1 to 20% (15 min) at a flow rate of 0.7 ml/min. Purified luciferase samples were obtained as a result of sequential purification of an aqueous extract of lyophilized worms: ion-exchange chromatography in a HiTrap Fast Flow column with DEAE-Sepharose (GE Healthcare, Uppsala, Sweden), ultrafiltration in an Amicon® Ultra centrifugal filter (Merck Millipore, Germany) and gel filtration chromatography in a Superdex 200 column ([…]).

[4] = Storage stability of freeze-dried substrate; assay type: physicochemical; details: −20° C.
Excerpt: This new luciferin isolated by the present inventors has a unique structure that distinguishes it from all previously described natural luciferins. Thus, the basis of the Odontosyllis worm luciferin molecule is a condensed heterocycle—thieno[3,2-f]thiochromene consisting of two six-membered and one five-membered rings. Such complex condensed tricyclic structures have not previously been found as bioluminescent reaction substrates. It is also worth noting that thiopyran is named in the composition of natural bioluminescent substrates for the first time. Odontosyllis worm luciferin is a strongly polar molecule and represents a strong acid, since this molecule comprises three carboxyl substituents and also carries a sulfonic acid residue. Freeze-dried substrate is stored at −20° C. without decrease in activity for at least 30 days, more often at least 60 days, normally at least a year.

[5] = tested on: recombinant luciferase Odontosyllis undecimdonta; test: Detecting luciferase in lysates of mammalian cells comprising recombinant luciferase; details: 1 μg in 100 μl tris-buffered saline pH 7.5, aliquots added to cell lysates with recombinant luciferase; FIG. 11
Protocol: Recombinant luciferase was obtained from luciferase complementary DNA synthesized as a linear double-stranded DNA fragment (Twist Biosciences, USA). Cloning was performed using the Golden Gate method. Eukaryotic cell expression plasmids were assembled into the plasmid of the MoClo pICH47742 kit as a backbone, and the following parts were cloned in level 0 vectors: cytomegalovirus promoter, luciferase candidate gene, termination codon comprising a part of DNA, and SV40 polyadenylation terminator. HEK293NT cells were transfected with FuGene 6 reagent plasmid (Promega, Fitchburg, Wis., USA) according to the manufacturer's protocol. The transfected cells were grown under standard conditions.
Lysates of mammalian cells comprising recombinant luciferase Odontosyllis undecimdonta were used as biological samples. Cell lysates were obtained as described above in the section “Obtaining native luciferase and recombinant luciferase samples”.

Compound: O=C(O)C(=O)C1=C(C(=O)O)Cc2c(c(OS(=O)(=O)O)c(O)c3scc(C(=O)O)c23)S1 [pre-luciferin, 7-(carboxycarbonyl)-4-hydroxy-5-(sulfooxy)-9H-thieno[3,2-f]thiochromene-1,8-dicarboxylic acid]
- luminescence of biological samples [1]: detected

Compound: O=C(O)C1=Cc2c(c(OS(=O)(=O)O)c(O)c3scc(C(=O)O)c23)SC1C(=O)O (stereo not drawn) [luciferin, 4-hydroxy-5-(sulfooxy)-7H-thieno[3,2-f]thiochromen-1,7,8-tricarboxylic acid]
- effect of light emission, especially the UV part of the spectrum [2]: degradation and loss of functionality
- radiation (luminescence) in the course of the reaction [3]: Radiation was observed
- storage without decrease in activity [4]: at least 30 days
- luminescence of biological samples [1]: detected
- luminescence of biological samples [5]: detected

— patent US20220298540A1, “METHOD AND REAGENTS FOR DETECTING LUCIFERASE ACTIVITY” (OBSCHESATVO S OGRANICHENNOY OTVETSTVENNOSTYU "PLANTA", priority 2019, published 2022)
